From US20240261296A1, “THERAPEUTIC MODALITIES FOR INHIBITING PANCREATIC BETA CELL IMPAIRMENT AND TREATING DIABETES” (Hadasit Medical Research Serices & Development Ltd., priority 2021, published 2024)

What was measured:
MIN6 cells = test: rescue of MIN6 cells from palmitate-induced apoptosis (cleaved caspase 3 western blot; FACS SubG1); type: cell-based, murine; conditions: palmitic acid 0.3 mM, 48 hours; compared to L-798106
Procedure: (§1) Islet and cell culture: The pancreatic β-cell line MIN6, which is a clonal murine insulin-secreting line, was cultured in DMEM (Biological Industries, Beit Haemek, Israel) supplemented with 11 mM Glucose, 2 mM glutamine, 15% heat-inactivated fetal calf serum (FCS), 100 U/ml penicillin, 100 µg/ml streptomycin and 61 μM β-mercaptoethanol. Human islets were obtained from the European Consortium for Islet Transplantation (ECIT) at the San Raffaele Hospital and from the Niguarda Hospital, (Milan, Italy) and cultured in CMRL-1066 media (Biological Industries, Beit HaEmek, Israel) supplemented with 10% FCS, 5.5 mM glucose, 2 mM L-Glutamine, 100 U/ml penicillin, 100 μg/ml streptomycin and 150 μg/ml gentamycin. Palmitate was added to 1% FCS and 0.5% defatted BSA (Roche, Germany).
Western blotting: Cells were lyzed in Laemmli protein sample buffer, separated on SDS-polyacrylamide gel, and transferred to […] nitrocellulose membranes (Schleicher and Schuell, Dassel, Germany). After blocking in 5% dried skimmed milk, the membranes were first incubated with the appropriate antibodies against: cleaved caspase-3 (Asp175) (Cell Signaling Technology Danvers, MA) and α-tubulin (Sigma-Aldrich.) and then with horseradish peroxidase conjugated anti-rabbit or anti-mouse IgG, followed by analysis with an enhanced chemiluminescence detection kit (Biological Industries, Israel).
The remaining compounds were screened for the ability to rescue β-cells from palmitate-induced apoptosis as compared to the commercial EP3 antagonist L-798106 by measuring the levels of the cleaved caspase 3 apoptotic marker, using Western Blot analysis (FIG. 1). […] Cell extracts were analyzed by western blotting for the presence of cleaved caspase 3 as compared to α-Tubulin.
The ability of the compounds to rescue β-cells from apoptosis was also evaluated using FACS analysis and measuring the SubG1 population (FIG. 2). […] Collected cells were analyzed by FACS and the SubG1 fractions (representing apoptotic cell products or components were compared. The average of 4-6 independent experiments is presented in FIG. 2.

human islet cells = test: Caspase-Glo 3/7 assay in palmitic acid-treated human islets; type: cell-based; design: rescuing human islet cells from apoptosis, compared with L-798106 / inhibiting or reversing palmitate-induced apoptosis in pancreatic islets of both human donors / inhibition of palmitate-induced apoptosis in human islets, donor 1: dose or concentration left out as unconfirmed; conditions: for rescuing human islet cells from apoptosis, compared with L-798106: two human donors
Procedure: as §1
Next, the ability of the compounds to rescue human islet cells from palmitate-induced apoptosis was determined. To this end, the Caspase-Glo 3/7 assay reagent (Promega) was used for caspase 3/7 detection in palmitic acid-treated cells. The reagent provides a proluminescent caspase-3/7 substrate, which contains the tetrapeptide sequence DEVD, in combination with luciferase and a cell-lysing agent. The addition of the reagent directly to the wells results in cell lysis, followed by caspase cleavage of the DEVD substrate, and the generation of luminescence.
Accordingly, human islets from two donors were exposed to the various compounds or to L-798106 for 48 h in the presence of palmitic acid, and the bioluminescence was measured as compared to control cells. FIGS. 3A-3B show the results of the treatment with […] of the compounds in two human donors (FIG. 3A—donor 1, FIG. 3B—donor 2). PA: Palmitate; L: L-798106; RLU: Relative Light Units. The results are average of triplicates or quadruplicates ±SEM (except in islets from L-798106 treated donor 2, representing duplicates).
Next, various concentrations of the compounds were tested in human pancreatic islet cells. Cells obtained from the first healthy donor (donor 1) were incubated in the presence or absence of PA with C13, C5 or L-798106 (L) at concentrations of 5, 2.5 and 0.5 μM. Caspase 3/7 enzymatic activity was measured as described above. The enzymatic activity is presented in FIG. 5A for 5 μM, FIG. 5B for 2.5 μM and FIG. 5C for 0.5 μM as relative light units (RLU/μg protein) and the graphs represent the average of n=3-4.

human islets β-cells = test: glucose-stimulated insulin secretion and insulin content in palmitate-treated human islets; type: cell-based; conditions: palmitic acid 0.3 mM, 48 hr, donors 1 and 2
Procedure: Determination of glucose-stimulated insulin secretion (GSIS) and content: To determine acute insulin release in response to glucose stimulation, islets were washed with Krebs-Ringer bicarbonate buffer pH 7.4, containing 10 mM HEPES and 0.5% bovine serum albumin (KRBH), and pre-incubated for 2 hrs in the same buffer containing 3.3 mM glucose. The buffer was then discarded and replaced with fresh KRBH containing 3.3 mM glucose, and the islets incubated for 1 hour for basal insulin secretion, followed by additional 1 hour incubation in KRBH containing 16.7 mM glucose. The supernatants were collected, centrifuged at 900 rpm and insulin was determined by Rat or Human insulin radioimmunoassay (RIA) kits (Linco Research, St. Charles, MO) according to the Manufacturer's instructions. […] The acidic ethanol eluates were collected and the amount of insulin determined by ELISA.
ELISA Assay: Insulin was extracted from the intracellular storage granules in human islets cells using a lysis buffer (Ethanol-HCl). The extract was analysed by a specific ELISA (Mercodia) which is a solid phase two-site enzyme immunoassay based on the sandwich technique, in which two monoclonal antibodies are directed against separate antigenic determinants on the insulin molecule. […]

Question: How did the “rescue of β-cells from palmitate-induced apoptosis (cleaved caspase 3; SubG1 population)” value (MIN6 cells) turn out when `CC[C@H](C)c1ccc(S(=O)(=O)Nc2ccccc2C(=O)N2C[C@@H](C)O[C@@H](C)C2)cc1` [Compound C5, 4-((S)-sec-butyl)-N-(2-((2S,6R)-2,6-dimethylmorpholine-4-carbonyl)phenyl)benzenesulfonamide] was run?
Answer: exceptionally high efficacy

Question: And the “inhibition of palmitate-induced apoptosis in human islets, compared with L-798106” value (human islet cells; donor 1, 5, 2.5 and 0.5 μM)?
Answer: to a greater extent than L-798106

Question: And the “rescuing human islet cells from apoptosis, compared with L-798106” value (human islet cells; palmitic acid, 48 h)?
Answer: to a greater extent than the EP3 antagonist L-798106

Question: With `CC[C@@H]1CC[C@H](C)N1C(=O)c1cccc(NS(=O)(=O)c2ccc(C)c(F)c2)c1` [Compound C13, N-(3-((2R,5S)-2-ethyl-5-methylpyrrolidine-1-carbonyl)phenyl)-3-fluoro-4-methylbenzenesulfonamide] as the compound, how does the “rescue of β-cells from palmitate-induced apoptosis (cleaved caspase 3; SubG1 population)” value (MIN6 cells) read?
Answer: exceptionally high efficacy

Question: And the “efficacy at all tested concentrations” value (human islet cells; donor 1, 5, 2.5 and 0.5 μM)?
Answer: remarkable efficacy

Question: What about the “inhibition of palmitate-induced apoptosis in human islets, compared with L-798106” value (human islet cells; donor 1, 5, 2.5 and 0.5 μM) of the same compound?
Answer: to a greater extent than L-798106

Question: And the “inhibiting or reversing palmitate-induced apoptosis in pancreatic islets of both human donors” value (human islet cells; palmitic acid, 48 h)?
Answer: particularly high efficacy

Question: What about the “rescuing human islet cells from apoptosis, compared with L-798106” value (human islet cells; palmitic acid, 48 h) of the same compound?
Answer: to a greater extent than the EP3 antagonist L-798106

Question: And the “restoring glucose-stimulated insulin secretion” value (human islets β-cells; 16.7 mM glucose)?
Answer: more potent than L-798106

Question: And the restoring insulin content (human islets β-cells)?
Answer: more potent than L-798106
